Assay results taken from patent publication US8399495B2, “Talarazole metabolites” (Stiefel Laboratories, Inc., priority 2006, dated 2013).

Legend:
[1] = system: vaginal keratinization induced by estrogenic treatment; assay: Inhibition of vaginal keratinization induced by estrogenic treatment in ovariectomized rats; assay type: in vivo, rat; conditions: for ED50-value for complete suppression (keratinization score=0): ovariectomized rats with estrogenic treatment, M4 oral during 3 days
Excerpt: Effects on Epithelial Differentiation in Rat Vagina: Inhibition of Vaginal Keratinization Induced by Estrogenic Treatment in Ovariectomized Rats by Oral Administration of Talarozole Metabolite M4
This animal model is based on the observation that retinoic acid (RA) suppresses the keratinization process in the stratified squamous epithelium of the vagina induced by estrogenic treatment in ovariectomized rats (Sietsema & DeLuca, 1982; Geiger & Weiser, 1989).

[2] = system: IP-10; assay: Suppression of IP-10 production by IFNγ-activated human epidermal keratinocytes; assay type: cell-based
Excerpt: Talarozole Metabolites for Suppression of IP-10 Production by IFNγ-Activated Human Epidermal Keratinocytes
IP-10, a member of the CXC subfamily of chemokines, attracts T-lymphocytes and natural killer cells. […] In particular, epidermal keratinocytes of psoriatic lesions express elevated levels of IP-10. Suppression of IP-10 expression by activated keratinocytes may represent a novel target for therapeutic intervention of inflammatory skin disorders.

[3] = Metabolite radioprofiling of plasma, urine and feces, mouse; assay type: in vivo; conditions: mouse (5 mg/kg) oral 14C-talarozole; for Urine % Dose as the component: urine 0-24 h
Description: (§1) Male and female CD-1 mice (19-29 g, n=3/sex/timepoint for blood sampling, n=3/sex for mass balance), Sprague Dawley rats (0.205-0.237 kg, n=3/sex/timepoint for blood sampling, n=3/sex for mass balance) and beagle dogs (7-12 kg, n=3) were given a single oral dose of ^14C-labeled talarozole in 20% hydroxyl propyl B-cyclodextrin at 5 mg/kg. Healthy human male volunteers (76.6-107.9 kg, n=5) were dosed with a single oral dose of 4 mg ^14C-labeled rambazole in ethanol. Blood samples were collected at selected timepoints after dosing and plasma was prepared. Urine and feces were collected for 2, 7 and 8 days. For the human study, up to 288 hours post-dose and semen samples were obtained 2 and 4 hours post-dose. Radioactivity in various matrices were measured by liquid scintillation counting (LSC). Select plasma, urine and fecal samples were subjected to metabolite radioprofiling and characterization, and in the human study, semen samples. Metabolite radioprofiling was accomplished using HPLC with fraction collection followed by solid scintillation counting (Packard TopCount—see representative HPLC run data below). Radioactivity peaks were integrated and the percent distribution of individual metabolites in each sample was determined. Metabolite characterization and identification were accomplished by LC/MS (Finnigan MAT LCQ in positive or negative ESI mode) in conjunction with an appropriate radioactive monitor (RAM). For all species, plasma, urine and fecal samples were pooled across animals and analyzed. Plasma was analyzed at several time-points out to 24 hours. Urine was analyzed over one time-interval (0-24 hours for mouse, 0-48 hours for rat, 0-72 hours for dog, and for in the human study, 0-12, 12-24, 24-48, 0-48 hours. Feces was analyzed over 2-3 time intervals (0-24 and 24-48 hours for mouse and rat; 0-24, 24-48, and 48-72 hours for male dogs; and 24-48, 48-72, and 72-96 hours for female dogs). In the human study, feces were analyzed for 0-48, 48-96, 96-144, 144-192, 192-288, 0-144, 144-288 and 0-288 hours. PK parameters for ^14C-labeled talarozole radioactivity was determined from the mean (mouse and rat) or individual (dog and human) plasma concentration versus time data. PK parameter values were determined by non-compartmental methods using WinNonlin™. • HPLC data for separations described in Example 1: • LC system: Waters 2695 Separations Module • Analytic column: C18 column, 4.6×150 mm, 3 μm • Flow rate: 1.0 mL/min • Mobile phase A: 2% HCOOH in H2O (pH 3.2) • Mobile phase B: CH3CN • Gradient: […]

[4] = Metabolite radioprofiling of plasma, urine and feces, rat; assay type: in vivo; conditions: rat (5 mg/kg) oral 14C-talarozole; for Urine % Dose as the component: urine 0-48 h
Description: as §1

[5] = Metabolite radioprofiling of plasma, urine and feces, dog; assay type: in vivo; conditions: dog (5 mg/kg) oral 14C-talarozole; for Urine % Dose as the component: urine 0-72 h
Description: as §1

[6] = Metabolite radioprofiling of plasma, urine, feces and semen, human; conditions: in vivo
Description: as §1

SMILES	ED50-value for complete suppression (keratinization score=0) [1] [mg/kg/day]	IP-10 expression [2]	Plasma 0-24 h AUC (% Sample) ([3]; female) [%]	Plasma 0-24 h AUC of the radioactive component ([3]; female) [ng·h/g]	Plasma 0-24 h AUC (% Sample) ([3]; male) [%]	Plasma 0-24 h AUC of the radioactive component ([3]; male) [ng·h/g]	Feces % Dose as the component ([4]; female) [% Dose]	Plasma 0-24 h AUC (% Sample) ([4]; female) [%]	Plasma 0-24 h AUC of the radioactive component ([4]; female) [ng·h/g]	Urine % Dose as the component ([4]; female) [% Dose]	Feces % Dose as the component ([4]; male) [% Dose]	Plasma 0-24 h AUC (% Sample) ([4]; male) [%]	Plasma 0-24 h AUC of the radioactive component ([4]; male) [ng·h/g]	Urine % Dose as the component ([4]; male) [% Dose]	Feces % Dose as the component ([5]; female) [% Dose]	Urine % Dose as the component ([5]; female) [% Dose]	Feces % Dose as the component ([5]; male) [% Dose]	Urine % Dose as the component ([5]; male) [% Dose]	also measured
CCC(CC)C(c1ccc(Nc2nc3ccc(O)cc3s2)cc1)n1cncn1 (stereo not shown) [Metabolite M4]	1.2	down regulate dose-dependently	7.44	492.2	4.43	402.45	7.76	3.68	331.07	0.29	4.95	7.01	493.84	0.07	17.01	0.01	19.88	0.04	inhibition of vaginal keratinization ([1]; oral administration during 3 days, ovariectomized rats): inhibited vaginal keratinization induced by estrogenic treatment in ovariectomized rats in a dose-dependent manner; Feces % Dose as the component ([3]; female): 15.16 % Dose; Urine % Dose as the component ([3]; female): 0.01 % Dose; Feces % Dose as the component ([3]; male): 10.56 % Dose; Urine % Dose as the component ([3]; male): 0.02 % Dose; Plasma 0-24 h AUC (% Sample) ([5]; female): 34.33%; Plasma 0-24 h AUC of the radioactive component ([5]; female): 6257.6 ng·h/g; Plasma 0-24 h AUC (% Sample) ([5]; male): 18.37%; Plasma 0-24 h AUC of the radioactive component ([5]; male): 3132.4 ng·h/g; Plasma 0-24 h AUC of the radioactive component ([6]; human, po, 0.067 mg/kg): 58.74 ng·h/g; Semen (radioactive component in semen samples) [6]: minor radioactive components; Plasma 0-24 h AUC (% Sample), % of total plasma radioactivity ([6]; male, human, po, 0.067 mg/kg): 27.8%
CCC(CC)[C@@H](c1ccc(Nc2nc3ccccc3s2)cc1)n1cncn1 [its enanantiomer]	–	down regulate dose-dependently	–	–	–	–	–	–	–	–	–	–	–	–	–	–	–	–	–
CCC(CC)C(c1ccc(Nc2nc3ccc(OS(=O)(=O)O)cc3s2)cc1)n1cncn1 (stereo not shown) [Metabolite M16]	–	–	–	–	–	–	1.33	2.43	218.47	0.31	1.42	2.94	207.48	0.16	–	–	–	–	–
CCC(CC)C(c1ccc(Nc2nc3ccc(OC4OC(C(=O)O)C(O)C(O)C4O)cc3s2)cc1)n1cncn1 (stereo not shown) [Metabolite M9]	–	–	18.27	1208.2	21.31	1937.3	–	12.06	1084.8	–	–	4.43	312.30	–	3.09	0.45	4.31	1.35	–
CC1=C(/C=C/C(C)=C/C=C/C(C)=C/C(=O)O)C(C)(C)CCC1 [RA, retinoic acid]	5.1	–	–	–	–	–	–	–	–	–	–	–	–	–	–	–	–	–	–
